Data: US7887827B2, “Use of malonomicin and analogs in fungicidal applications” (Dow AgroSciences LLC, priority 2006, dated 2011)

How the values were obtained:
Format in all cases: in vivo
[1] = system: Venturia inaequalis (VENTIN); experiment: One day protectant (1 DP) test, Apple Scab; details: 0.1 percent Spraymate X77 + 0.1 percent ammonium sulfate
[2] = system: Venturia inaequalis (VENTIN); experiment: Curative test, Apple Scab (compound added 2 days after inoculation); details: curative at 200 ppm
[3] = system: Puccinia recondita f. sp. tritici (PUCCRT); experiment: Drop Line Test on wheat leaf, Brown Rust of Wheat; details: Drop Line Test 0.5 μg/leaf, 2 microliter drop
Procedure: Wheat (cultivar Monon) was grown in plastic pots (6.2 cm×8.75 cm) containing 50 percent mineral soil, 50 percent Metro-Mix 360 (W.R Grace and Co.) until the seedlings were 10-20 cm tall. These plants were then sprayed to runoff with the test compound at a rate of 200 ppm. After 24 hours the test plants were inoculated by spraying with an aqueous spore suspension of Puccinia recondita f. sp. tritici (PUCCRT). The plants were then transferred to a dew chamber for 24 hours, then to the greenhouse until disease developed on the untreated control plants. In Example 3, a Drop Line Test was used, wherein instead of spraying the plant to runoff, a 2 microliter drop was placed on the wheat leaf and observed for disease control.

Compound | VENTIN percent control of plant disease ([1]; 50 ppm and 100 ppm) | VENTIN percent control of plant disease ([1]; rate 200 ppm) | VENTIN percent control of plant disease, curative [2] | PUCCRT percent control of plant disease, Drop Line Test [3]
NC[C@@H]1NC(=O)C(C(=O)CC(NC(=O)[C@@H](N)CO)(C(=O)O)C(=O)O)=C1O [Compound I, {[(2S)-2-amino-3-hydroxypropanoyl]amino}{2-[(5S)-5-(aminomethyl)-4-hydroxy-2-oxo-2,5-dihydro-1H-pyrrol-3-yl]-2-oxoethyl}malonic acid] | ++ (++ = 75-100 percent control of plant disease) | + (+ = 30-74 percent control of plant disease) | ++^α (++ = 75-100 percent control of plant disease) | 
C[C@H](N)C(=O)NC(CC(=O)O)(CC(=O)C1=C(O)[C@H](CN)NC1=O)C(=O)O (stereo partly shown) [Compound III] |  |  |  | + (+ = 30-74 percent control of plant disease)
